Measured values reported in PubChem BioAssay AID328 (DTP/NCI, 2004).
Inconclusive results and toxic doses are left out.

Tested on: BDF1 mice, P388 leukemia ip, median survival T/C
Assay: NCI In Vivo Anticancer Drug Screen. Data for tumor model P388 Leukemia (intraperitoneal) in B6D2F1 (BDF1) mice
Conditions: endpoint: median survival time, higher = longer survival
Procedure, shortened: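 T/C = treated-group survival ÷ vehicle-control survival; tumour transplanted into mice before dosing.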

[1] = dose: 50.0 mg/kg/injection, schedule: Q01DX009 (ip), vehicle: saline
[2] = dose: 200.0 mg/kg/injection, schedule: Q01DX009 (ip), vehicle: saline
[3] = dose: 100.0 mg/kg/injection, schedule: Q01DX009 (ip), vehicle: water
[4] = dose: 200.0 mg/kg/injection, schedule: Q01DX009 (ip), vehicle: saline with Tween-80
[5] = dose: 400.0 mg/kg/injection, schedule: Q01DX009 (ip), vehicle: saline with Tween-80
[6] = dose: 100.0 mg/kg/injection, schedule: Q01DX009 (ip), vehicle: saline with Tween-80
[7] = dose: 100.0 mg/kg/injection, schedule: Q04DX003 (ip), vehicle: saline with Tween-80
[8] = dose: 200.0 mg/kg/injection, schedule: Q04DX003 (ip), vehicle: saline with Tween-80
[9] = dose: 400.0 mg/kg/injection, schedule: Q04DX003 (ip), vehicle: saline with Tween-80

For CCCC(O)(CCC)CC1=NC(C)(C)CO1, the T/C (dose: 75.0 mg/kg/injection, schedule: Q04DX003 (ip), vehicle: saline sonified) was 110 % of control, the T/C (dose: 150.0 mg/kg/injection, schedule: Q04DX003 (ip), vehicle: saline sonified) was 105 % of control and the T/C (dose: 300.0 mg/kg/injection, schedule: Q04DX003 (ip), vehicle: saline sonified) was 100 % of control.

CC1=C(C)C(=O)c2c(OC(=O)c3ccccc3)ccc(OC(=O)c3ccccc3)c2C1=O was tested, and the T/C (dose: 6.25 mg/kg/injection, schedule: Q04DX003 (ip), vehicle: saline) was 102 % of control, the T/C (dose: 12.5 mg/kg/injection, schedule: Q04DX003 (ip), vehicle: saline) was 103 % of control and the T/C (dose: 25.0 mg/kg/injection, schedule: Q01DX009 (ip), vehicle: saline) was 92 % of control. For the same compound, the T/C (dose: 25.0 mg/kg/injection, schedule: Q04DX003 (ip), vehicle: saline) was 94 % of control, the T/C [1] was 101 % of control and the T/C (dose: 50.0 mg/kg/injection, schedule: Q04DX003 (ip), vehicle: saline) was 99 % of control. The T/C (dose: 100.0 mg/kg/injection, schedule: Q01DX009 (ip), vehicle: saline) was 92 % of control, the T/C (dose: 100.0 mg/kg/injection, schedule: Q04DX003 (ip), vehicle: saline) was 94 % of control and the T/C [2] was 91 % of control. The T/C (dose: 400.0 mg/kg/injection, schedule: Q01DX009 (ip), vehicle: saline) was 89 % of control.

In the case of COc1cc2c(cc1OC)C(=O)N(C)CC2, the T/C [1] is reported as 105 % of control, the T/C [3] is reported as 97 % of control and the T/C [2] is reported as 119 % of control.

COc1ccc(NC(=O)Oc2ccc3c(C)cc(=O)oc3c2)c(OC)c1 was tested, and the T/C [4] was 155 % of control and the T/C [5] was 100 % of control.

With O=C(/C=C/C=C/c1ccccc1)c1ccc(Cl)cc1 the T/C [6] was 115 % of control, the T/C [7] was 100 % of control and the T/C [4] was 115 % of control. The T/C [8] was 90 % of control, the T/C [5] was 110 % of control and the T/C [9] was 109 % of control.

With Clc1ccc(COC(Cn2ccnc2)c2ccc(Cl)cc2Cl)c(Cl)c1 (stereo unspecified) the T/C (dose: 18.7 mg/kg/injection, schedule: Q01DX009 (ip), vehicle: saline with Tween-80) was 118 % of control, the T/C (dose: 75.0 mg/kg/injection, schedule: Q01DX009 (ip), vehicle: saline with Tween-80) was 118 % of control and the T/C [4] was 108 % of control. For the same compound, the T/C [5] was 108 % of control.

CCCCNC(=O)Nc1ccc(N(CC)CC)cc1 was tested, and the T/C [7] was 100 % of control, the T/C [8] was 100 % of control and the T/C [9] was 90 % of control.

For C1=C(c2ccccc2)C(c2ccccc2)=C(c2ccccc2)C(c2ccccc2)C(c2ccccc2)=N1 (stereo unspecified), the T/C (dose: 50.0 mg/kg/injection, schedule: Q01DX009 (ip), vehicle: saline with Tween-80) was 100 % of control, the T/C [6] was 92 % of control and the T/C [4] was 106 % of control.

CN(C(N)=O)c1c(O)nc(N)[nH]c1=O was tested, and the T/C (dose: 12.5 mg/kg/injection, schedule: Q01DX009 (ip), vehicle: water) was 106 % of control, the T/C (dose: 25.0 mg/kg/injection, schedule: Q04DX003 (ip), vehicle: water) was 106 % of control and the T/C (dose: 50.0 mg/kg/injection, schedule: Q01DX009 (ip), vehicle: water) was 88 % of control. The T/C (dose: 50.0 mg/kg/injection, schedule: Q04DX003 (ip), vehicle: water) was 100 % of control, the T/C [3] was 91 % of control and the T/C (dose: 100.0 mg/kg/injection, schedule: Q04DX003 (ip), vehicle: water) was 106 % of control. The T/C (dose: 200.0 mg/kg/injection, schedule: Q04DX003 (ip), vehicle: water) was 106 % of control.

For Cn1c(Cl)nc2c(Cl)nc(Cl)nc21, the T/C (dose: 1.0 mg/kg/injection, schedule: Q01DX009 (ip), vehicle: Klucel (hydroxypropylcellulose) (HPC)) was 105 % of control, the T/C (dose: 2.0 mg/kg/injection, schedule: Q01DX009 (ip), vehicle: Klucel (hydroxypropylcellulose) (HPC)) was 100 % of control and the T/C (dose: 4.0 mg/kg/injection, schedule: Q01DX009 (ip), vehicle: Klucel (hydroxypropylcellulose) (HPC)) was 110 % of control. For the same compound, the T/C (dose: 8.0 mg/kg/injection, schedule: Q01DX009 (ip), vehicle: Klucel (hydroxypropylcellulose) (HPC)) was 105 % of control and the T/C (dose: 16.0 mg/kg/injection, schedule: Q01DX009 (ip), vehicle: Klucel (hydroxypropylcellulose) (HPC)) was 100 % of control.
